Assay results published in the supplement of paper PMC10307832.

Assays:
Assay in all cases: relative viability (nuclei count vs DMSO), 5 days (fraction); higher = more cells survive
LC-2-ad = tested on: LC-2-ad
Procedure, shortened: (§1)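 Relative viability is defined as nuclei in treated wells over nuclei in vehicle wells. Duplicate plates were run and medians reported. Lung cancer cell lines in 1536-well plates were dosed by pin tool one day after seeding, with one drug or with a fixed anchor-drug dose plus five library-drug doses (not always all listed) in √10 steps, and nuclei were counted after 5 days.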

NCI-H2228 = tested on: NCI-H2228
Procedure, shortened: as §1

NCI-H1734 = tested on: NCI-H1734
Procedure, shortened: as §1

A-427 = tested on: A-427
Procedure, shortened: as §1

RERF-LC-KJ = tested on: RERF-LC-KJ
Procedure, shortened: as §1

HOP-62 = tested on: HOP-62
Procedure, shortened: as §1

NCI-H1755 = tested on: NCI-H1755
Procedure, shortened: as §1

NCI-H1915 = tested on: NCI-H1915
Procedure, shortened: as §1

NCI-H2347 = tested on: NCI-H2347
Procedure, shortened: as §1

HCC-15 = tested on: HCC-15
Procedure, shortened: as §1

SW 1573 = tested on: SW 1573
Procedure, shortened: as §1

SK-LU-1 = tested on: SK-LU-1
Procedure, shortened: as §1

NCI-H2126 = tested on: NCI-H2126
Procedure, shortened: as §1

NCI-H647 = tested on: NCI-H647
Procedure, shortened: as §1

PC-3 [JPC-3] = tested on: PC-3 [JPC-3]
Procedure, shortened: as §1

HCC-78 = tested on: HCC-78
Procedure, shortened: as §1

NCI-H1975 = tested on: NCI-H1975
Procedure, shortened: as §1

NCI-H1792 = tested on: NCI-H1792
Procedure, shortened: as §1

LXF-289 = tested on: LXF-289
Procedure, shortened: as §1

Structure (SMILES): CCN(CC)CCCCNc1ncc2cc(-c3cc(OC)cc(OC)c3)c(NC(=O)NC(C)(C)C)nc2n1 + CC(C)C[C@H](NC(=O)[C@H](Cc1ccccc1)NC(=O)c1cnccn1)B(O)O [Bortezomib] (partner 0.002 µM)
- relative viability (LC-2-ad; first compound 0.01 µM): 0.998
- relative viability (LC-2-ad; first compound 0.03162 µM): 1.06
- relative viability (LC-2-ad; first compound 0.1 µM): 1.33
- relative viability (LC-2-ad; first compound 0.3162 µM): 1.05
- relative viability (LC-2-ad; first compound 1 µM): 1
- relative viability (NCI-H2228; first compound 0.01 µM): 0.874
- relative viability (NCI-H2228; first compound 0.03162 µM): 0.997
- relative viability (NCI-H2228; first compound 0.1 µM): 1.24
- relative viability (NCI-H2228; first compound 0.3162 µM): 1.11
- relative viability (NCI-H2228; first compound 1 µM): 1.02
- relative viability (NCI-H1734; first compound 0.01 µM): 0.941
- relative viability (NCI-H1734; first compound 0.03162 µM): 0.901
- relative viability (NCI-H1734; first compound 0.1 µM): 1.11
- relative viability (NCI-H1734; first compound 0.3162 µM): 1.11
- relative viability (NCI-H1734; first compound 1 µM): 0.874
- relative viability (A-427; first compound 0.01 µM): 1.1
- relative viability (A-427; first compound 0.03162 µM): 0.989
- relative viability (A-427; first compound 0.1 µM): 1.12
- relative viability (A-427; first compound 0.3162 µM): 1.06
- relative viability (A-427; first compound 1 µM): 0.913
- relative viability (RERF-LC-KJ; first compound 0.01 µM): 1.17
- relative viability (RERF-LC-KJ; first compound 0.03162 µM): 1.15
- relative viability (RERF-LC-KJ; first compound 0.1 µM): 1.05
- relative viability (RERF-LC-KJ; first compound 0.3162 µM): 1.21
- relative viability (RERF-LC-KJ; first compound 1 µM): 1
- relative viability (HOP-62; first compound 0.01 µM): 0.726
- relative viability (HOP-62; first compound 0.03162 µM): 0.888
- relative viability (HOP-62; first compound 0.1 µM): 0.728
- relative viability (HOP-62; first compound 0.3162 µM): 0.717
- relative viability (HOP-62; first compound 1 µM): 0.79
- relative viability (NCI-H1755; first compound 0.01 µM): 0.977
- relative viability (NCI-H1755; first compound 0.03162 µM): 0.992
- relative viability (NCI-H1755; first compound 0.1 µM): 1.01
- relative viability (NCI-H1755; first compound 0.3162 µM): 1.07
- relative viability (NCI-H1755; first compound 1 µM): 0.936
- relative viability (NCI-H1915; first compound 0.01 µM): 1.07
- relative viability (NCI-H1915; first compound 0.03162 µM): 1.1
- relative viability (NCI-H1915; first compound 0.1 µM): 1.18
- relative viability (NCI-H1915; first compound 0.3162 µM): 1.09
- relative viability (NCI-H1915; first compound 1 µM): 0.951
- relative viability (NCI-H2347; first compound 0.01 µM): 0.855
- relative viability (NCI-H2347; first compound 0.03162 µM): 0.864
- relative viability (NCI-H2347; first compound 0.1 µM): 1.2
- relative viability (NCI-H2347; first compound 0.3162 µM): 1.16
- relative viability (NCI-H2347; first compound 1 µM): 0.639
- relative viability (HCC-15; first compound 0.01 µM): 1.24
- relative viability (HCC-15; first compound 0.03162 µM): 1.06
- relative viability (HCC-15; first compound 0.1 µM): 1.06
- relative viability (HCC-15; first compound 0.3162 µM): 1.19
- relative viability (HCC-15; first compound 1 µM): 0.936
- relative viability (SW 1573; first compound 0.01 µM): 1.03
- relative viability (SW 1573; first compound 0.03162 µM): 0.991
- relative viability (SW 1573; first compound 0.1 µM): 1.07
- relative viability (SW 1573; first compound 0.3162 µM): 1.03
- relative viability (SW 1573; first compound 1 µM): 0.936
- relative viability (SK-LU-1; first compound 0.01 µM): 1.1
- relative viability (SK-LU-1; first compound 0.03162 µM): 0.911
- relative viability (SK-LU-1; first compound 0.1 µM): 1.27
- relative viability (SK-LU-1; first compound 0.3162 µM): 1.75
- relative viability (SK-LU-1; first compound 1 µM): 1.06
- relative viability (NCI-H2126; first compound 0.01 µM): 1.23
- relative viability (NCI-H2126; first compound 0.03162 µM): 1.16
- relative viability (NCI-H2126; first compound 0.1 µM): 1.22
- relative viability (NCI-H2126; first compound 0.3162 µM): 1.19
- relative viability (NCI-H2126; first compound 1 µM): 1.13
- relative viability (NCI-H647; first compound 0.01 µM): 1.02
- relative viability (NCI-H647; first compound 0.03162 µM): 0.996
- relative viability (NCI-H647; first compound 0.1 µM): 1.6
- relative viability (NCI-H647; first compound 0.3162 µM): 1.08
- relative viability (NCI-H647; first compound 1 µM): 1.07
- relative viability (PC-3 [JPC-3]; first compound 0.01 µM): 0.895
- relative viability (PC-3 [JPC-3]; first compound 0.03162 µM): 0.862
- relative viability (PC-3 [JPC-3]; first compound 0.1 µM): 0.972
- relative viability (PC-3 [JPC-3]; first compound 0.3162 µM): 0.966
- relative viability (PC-3 [JPC-3]; first compound 1 µM): 0.939
- relative viability (HCC-78; first compound 0.01 µM): 0.66
- relative viability (HCC-78; first compound 0.03162 µM): 0.487
- relative viability (HCC-78; first compound 0.1 µM): 0.395
- relative viability (HCC-78; first compound 0.3162 µM): 0.492
- relative viability (HCC-78; first compound 1 µM): 0.464
- relative viability (NCI-H1975; first compound 0.01 µM): 0.442
- relative viability (NCI-H1975; first compound 0.03162 µM): 0.375
- relative viability (NCI-H1975; first compound 0.1 µM): 0.394
- relative viability (NCI-H1975; first compound 0.3162 µM): 0.451
- relative viability (NCI-H1975; first compound 1 µM): 0.365
- relative viability (NCI-H1792; first compound 0.01 µM): 1.05
- relative viability (NCI-H1792; first compound 0.03162 µM): 1.05
- relative viability (NCI-H1792; first compound 0.1 µM): 0.924
- relative viability (NCI-H1792; first compound 0.3162 µM): 1.38
- relative viability (NCI-H1792; first compound 1 µM): 0.689
- relative viability (LXF-289; first compound 0.01 µM): 0.99
- relative viability (LXF-289; first compound 0.03162 µM): 1.08
- relative viability (LXF-289; first compound 0.1 µM): 1.16
- relative viability (LXF-289; first compound 0.3162 µM): 0.955
- relative viability (LXF-289; first compound 1 µM): 0.846
